Some test systems named below: CAKI-1 renal; NCI-H226 lung; NCI-H460 lung; NCI-H522 lung; SF-268 CNS; SNB-75 CNS; SR leukemia; UACC-257 melanoma; PC-3 prostate; SK-MEL-2 melanoma.
What all share (assay): inhibition of tumour cell growth, NCI panel, 48 h

Consider 14 molecules from PubChem BioAssay (NCI).

Structures are written as SMILES. Values joined by “and” are separate entries in the source; they are usually repeats but may differ in a detail not shown here. Equal values may be shown once.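 The compound was tested at five concentrations on cells cultured in 96-well plates, with a 48-hour exposure period. Here, GI50 denotes the concentration required for 50% inhibition of growth. TGI: total growth inhibition.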

As for `O=C(O)c1cc2sc(C(=O)O)cc2s1`, the TGI in the test with CAKI-1 renal, with NCI-H226 lung, in the test with NCI-H460 lung, with NCI-H522 lung, with SF-268 CNS and in the test on SNB-75 CNS was more than 100 µM in each case. The TGI in the test with SR leukemia and in the test on UACC-257 melanoma was more than 100 µM in each case.
Take `CNC(=S)c1nnsc1N`: the TGI in the test on CAKI-1 renal was more than 100 µM; in the test with NCI-H226 lung, more than 100 µM; in the test with NCI-H460 lung, 41.5 µM; in the test on NCI-H522 lung, more than 100 µM; in the test on PC-3 prostate, more than 100 µM; with SF-268 CNS, more than 100 µM. Moreover, the TGI in the test with SK-MEL-2 melanoma, in the test on SNB-75 CNS and in the test on UACC-257 melanoma was more than 100 µM each time.
As to `COC(=O)Cc1c(-c2c(CC(=O)OC)c3ccccc3n2C2OC(COC3OC(COC(C)=O)C(OC(C)=O)C(OC(C)=O)C3OC(C)=O)C(O)C(O)C2O)[nH]c2ccccc12` (stereo not drawn), the TGI in the test with CAKI-1 renal was more than 100 µM; in the test on NCI-H226 lung, more than 100 µM; in the test with NCI-H460 lung it was more than 100 µM; in the test on PC-3 prostate, more than 100 µM; with SK-MEL-2 melanoma, 64.7 µM; with SR leukemia it was more than 100 µM. Moreover, the TGI with UACC-257 melanoma is more than 100 µM.
Take `C/C(=N\Nc1nc2ccccc2[nH]1)c1ccc2ccccc2n1`: the TGI in the test with CAKI-1 renal is 1.54 µM; in the test on NCI-H460 lung, 10.4 µM; with NCI-H522 lung it was 8.85 µM; in the test on PC-3 prostate, 5.2 µM; in the test on SF-268 CNS it was 14.3 µM; in the test on SK-MEL-2 melanoma, 7.23 µM. Further, the TGI with SR leukemia was determined as 0.448 µM; in the test with UACC-257 melanoma, 24.9 µM.
For the molecule `O=[N+]([O-])c1ccc(N/N=C\c2ccc(O)cc2O)nc1`, the GI50 was 1680 nM with CAKI-1 renal; 3.39 µM in the test on NCI-H226 lung; 797 nM in the test on NCI-H460 lung; 10.8 µM with NCI-H522 lung; 5.73 µM in the test on PC-3 prostate; 1210 nM in the test with SF-268 CNS. In addition, the GI50 with SK-MEL-2 melanoma is 5.21 µM; in the test with SNB-75 CNS, 9.77 µM; in the test with UACC-257 melanoma, 3.37 µM. The TGI with CAKI-1 renal is 9.8 µM; in the test with NCI-H226 lung, more than 100 µM; in the test with NCI-H460 lung, more than 100 µM; in the test on NCI-H522 lung, more than 100 µM; in the test on PC-3 prostate, more than 100 µM; with SF-268 CNS it was more than 100 µM. For the same molecule, the TGI in the test on SK-MEL-2 melanoma, with SNB-75 CNS and in the test with UACC-257 melanoma was more than 100 µM throughout.
With `COC(=O)c1cc(OCc2cc(OCc3ccc(Br)cc3)cc(OCc3ccc(Br)cc3)c2)cc(OCc2cc(OCc3ccc(Br)cc3)cc(OCc3ccc(Br)cc3)c2)c1`, the TGI in the test with CAKI-1 renal, in the test on NCI-H226 lung, with NCI-H460 lung, in the test on NCI-H522 lung, with PC-3 prostate and in the test on SF-268 CNS was more than 100 µM throughout. The TGI with SK-MEL-2 melanoma, with SNB-75 CNS and in the test with UACC-257 melanoma was more than 100 µM in each case.
Consider `COc1ccc(C2=Nn3c(C)nnc3S/C2=C\c2ccc(-c3ccc([N+](=O)[O-])cc3)o2)cc1`, for which the TGI was 29.1 µM in the test with CAKI-1 renal; 46.2 µM with NCI-H226 lung; 39.5 µM with NCI-H460 lung; 23.8 µM in the test on NCI-H522 lung; 59.5 µM with PC-3 prostate; 47.1 µM in the test on SF-268 CNS. Also, the TGI was found to be 40.8 µM in the test with SK-MEL-2 melanoma and 54.7 µM with UACC-257 melanoma.
As for `O=CC1C(=O)Nc2nc3ccccc3n2C1c1ccccc1` (stereo not drawn), the TGI in the test with CAKI-1 renal was 48.5 µM; in the test with NCI-H226 lung it was 36.9 µM; in the test with NCI-H460 lung, 82.8 µM; with NCI-H522 lung it was 26.3 µM; with PC-3 prostate, 42.4 µM; in the test on SF-268 CNS, 27 µM. For the same molecule, the TGI is 43.7 µM in the test with SK-MEL-2 melanoma, 22.3 µM in the test on SNB-75 CNS and 33.3 µM with UACC-257 melanoma.
In the case of `COC(=O)CCC(=O)c1ccc2c(c1)CC1(Cc3ccccc3C1)C2`, the TGI with NCI-H226 lung is 94.9 µM; in the test with NCI-H522 lung, more than 100 µM; in the test on PC-3 prostate it was more than 100 µM; with SK-MEL-2 melanoma, more than 100 µM; with SR leukemia it was 34 µM; with UACC-257 melanoma, 84.2 µM.
In the case of `CCCCCCCCC[C@@H]1C[C@H](O)[C@H](Cc2ccccc2)N1C(=O)OC(C)(C)C`, the TGI with CAKI-1 renal was found to be 38.2 µM; with NCI-H522 lung it was 30 µM; in the test with SF-268 CNS it was 34.6 µM; in the test on SK-MEL-2 melanoma it was 30.3 µM; in the test with SNB-75 CNS, 38.1 µM; in the test with SR leukemia, 46.2 µM. In the test with UACC-257 melanoma, this molecule gave a TGI of 30.6 µM.
Regarding `C=CCOC1=C(OC(C)=O)C(C2COC(C)(C)O2)OC1=O` (stereo not drawn), the TGI with CAKI-1 renal was 3.89 µM; in the test with NCI-H226 lung, more than 100 µM; with NCI-H460 lung it was 61.4 µM; in the test with NCI-H522 lung, 5.45 µM; with PC-3 prostate, more than 100 µM; with SF-268 CNS, more than 100 µM. Also, the TGI in the test with SK-MEL-2 melanoma is more than 100 µM; with SNB-75 CNS it was more than 100 µM; with UACC-257 melanoma, 39.7 µM.
Consider `COc1ccc(-c2c(C#N)c(N)n(C3OC(COC(C)=O)C(OC(C)=O)C(OC(C)=O)C3OC(C)=O)c(=S)c2C#N)cc1` (stereo not drawn), for which the TGI in the test on CAKI-1 renal is more than 100 µM; in the test on NCI-H226 lung, more than 100 µM; with NCI-H460 lung it was more than 100 µM; in the test on NCI-H522 lung, > 100 µM and 52.6 µM; in the test on PC-3 prostate, more than 100 µM; in the test on SF-268 CNS, > 100 µM and 88.3 µM. For the same molecule, the TGI is > 100 µM and 39.8 µM with SK-MEL-2 melanoma; 63.4 µM and 50.9 µM in the test on SNB-75 CNS; > 100 µM and 44.5 µM in the test with UACC-257 melanoma.
Turning to `CSc1nc(NC2OC(CO)C(O)C(O)C2O)c(N)c(=O)[nH]1` (stereo not drawn), the TGI with NCI-H226 lung, in the test on NCI-H460 lung, in the test on NCI-H522 lung, in the test with SF-268 CNS, with SK-MEL-2 melanoma and with SNB-75 CNS was more than 100 µM each time. This molecule had a TGI in the test on UACC-257 melanoma of more than 100 µM.
Turning to `COc1ccc([C@H]2C=C(c3cc(F)c(Cl)cc3Cl)N=c3s/c(=C\c4ccc(-c5ccc(Cl)cc5Cl)o4)c(=O)n32)cc1`, the TGI with CAKI-1 renal, in the test on NCI-H226 lung, in the test on NCI-H460 lung, with NCI-H522 lung, in the test on PC-3 prostate and in the test on SF-268 CNS was more than 100 µM throughout. The TGI is 48.3 µM in the test on SK-MEL-2 melanoma, more than 100 µM in the test with SNB-75 CNS and more than 100 µM in the test with UACC-257 melanoma.
